In patent US7964560B2, “Hepatitis C virus inhibitors” (Bristol-Myers Squibb Company, priority 2008, dated 2011):
Like-named read-outs stand apart in the source and are kept apart here.

What was measured:
[1] = biological target: T1, HCV NS3/4A protease complex, BMS strain (UniProt P27958, species not given/STRAIN_BMS); experiment: FRET peptide assay to monitor HCV NS3/4A proteolytic activity (BMS strain); assay type: biochemical, Hepatitis C virus (genotype 1a); conditions: read-out: IC50 against the NS3/4A BMS strain in the enzyme assay; BMS strain
T1 construct: other: BMS strain; said of H77 and J4L6S; fused on or other part: three-lysine solubilising tail at the end of NS4A (printed for the H77 and J4L6S constructs; probably the same for BMS)
Description: (§1) HCV […] protease complexes, derived from the BMS strain, H77 strain or J4L6S strain, were generated, as described below. These purified recombinant proteins were generated for use in a homogeneous assay (see below) to provide an indication of how effective compounds of the present disclosure would be in inhibiting HCV NS3 proteolytic activity.
(§2) Serum from an HCV-infected patient was obtained from Dr. T. Wright, San Francisco Hospital. An engineered full-length cDNA (compliment deoxyribonucleic acid) template of the HCV genome (BMS strain) was constructed from DNA fragments obtained by reverse transcription-PCR (RT-PCR) of serum RNA (ribonucleic acid) and using primers selected on the basis of homology between other genotype 1a strains. From the determination of the entire genome sequence, a genotype 1a was assigned to the HCV isolate according to the classification of Simmonds et al. (See Simmonds, P. et al., J. Clin. Microbiol., 31(6), 1493-1503 (1993)). […] The infectious clones, H77 (1a genotype) and J4L6S (1b genotype) were obtained from R. Purcell (NIH) and the sequences are published in GENBANK® (AAB67036, see Yanagi, M. et al., Proc. Natl. Acad. Sci. U.S.A., 94(16):8738-8743 (1997); AF054247, see Yanagi, M. et al., Virology, 244(1):161-172 (1998)).
(§3) The H77 and J4L6S strains were used for production of recombinant NS3/4A protease complexes. DNA encoding the recombinant HCV NS3/4A protease complex (amino acids 1027 to 1711) for these strains were manipulated as described by P. Gallinari et al. (see Gallinari, P. et al, Biochemistry, 38(17):5620-5632 (1999)). Briefly, a three-lysine solubilizing tail was added at the 3′-end of the NS4A coding region. The cysteine in the P1 position of the NS4A-NS4B cleavage site (amino acid 1711) was changed to a glycine to avoid the proteolytic cleavage of the lysine tag. Furthermore, a cysteine to serine mutation was introduced by PCR at amino acid position 1454 to prevent the autolytic cleavage in the NS3 helicase domain. The variant DNA fragment was cloned in the pET21b bacterial expression vector (Novagen) and the NS3/4A complex was expressed in Escherichia. coli strain BL21 (DE3) (Invitrogen) following the protocol described by P. Gallinari et al. (see Gallinari, P. et al., J. Virol., 72(8):6758-6769 (1998)) with modifications. Briefly, the NS3/4A protease complex expression was induced with 0.5 millimolar (mM) Isopropyl β-D-1-thiogalactopyranoside (IPTG) for 22 hours (h) at 20° C. A typical fermentation (1 Liter (L)) yielded approximately 10 grams (g) of wet cell paste. The cells were resuspended in lysis buffer (10 mL/g) consisting of 25 mM N-(2-hydroxyethyl)piperazine-N′-(2-ethane sulfonic acid) (HEPES), pH 7.5, 20% glycerol, 500 mM sodium chloride (NaCl), 0.5% Triton X-100, 1 microgram/milliliter (“μg/mL”) lysozyme, 5 mM magnesium chloride (MgCl2), 1 μg/ml DnaseI, 5 mM β-mercaptoethanol (βME), protease inhibitor-ethylenediamine tetraacetic acid (EDTA) free (Roche), homogenized and incubated for 20 minutes (min) at 4° C. The homogenate was sonicated and clarified by ultra-centrifugation at 235000 g for 1 hour (h) at 4° C. Imidazole was added to the supernatant to a final concentration of 15 mM and the pH adjusted to 8.0. The crude protein extract was loaded on a Nickel-Nitrilotriacetic acid (Ni-NTA) column pre-equilibrated with buffer B (25 mM HEPES, pH 8.0, 20% glycerol, 500 mM NaCl, 0.5% Triton X-100, 15 mM imidazole, 5 mM βME). The sample was loaded at a flow rate of 1 mL/min. The column was washed with 15 column volumes of buffer C (same as buffer B except with 0.2% Triton X-100). The protein was eluted with 5 column volumes of buffer D (same as buffer C except with 200 mM Imidazole).
(§4) NS3/4A protease complex-containing fractions were pooled and loaded on a desalting column Superdex-S200 pre-equilibrated with buffer D (25 mM HEPES, pH 7.5, 20% glycerol, 300 mM NaCl, 0.2% Triton X-100, 10 mM βME). Sample was loaded at a flow rate of 1 mL/min. […]
T1 sequence (P27958 1027-1657, stated change not applied, one chain of several): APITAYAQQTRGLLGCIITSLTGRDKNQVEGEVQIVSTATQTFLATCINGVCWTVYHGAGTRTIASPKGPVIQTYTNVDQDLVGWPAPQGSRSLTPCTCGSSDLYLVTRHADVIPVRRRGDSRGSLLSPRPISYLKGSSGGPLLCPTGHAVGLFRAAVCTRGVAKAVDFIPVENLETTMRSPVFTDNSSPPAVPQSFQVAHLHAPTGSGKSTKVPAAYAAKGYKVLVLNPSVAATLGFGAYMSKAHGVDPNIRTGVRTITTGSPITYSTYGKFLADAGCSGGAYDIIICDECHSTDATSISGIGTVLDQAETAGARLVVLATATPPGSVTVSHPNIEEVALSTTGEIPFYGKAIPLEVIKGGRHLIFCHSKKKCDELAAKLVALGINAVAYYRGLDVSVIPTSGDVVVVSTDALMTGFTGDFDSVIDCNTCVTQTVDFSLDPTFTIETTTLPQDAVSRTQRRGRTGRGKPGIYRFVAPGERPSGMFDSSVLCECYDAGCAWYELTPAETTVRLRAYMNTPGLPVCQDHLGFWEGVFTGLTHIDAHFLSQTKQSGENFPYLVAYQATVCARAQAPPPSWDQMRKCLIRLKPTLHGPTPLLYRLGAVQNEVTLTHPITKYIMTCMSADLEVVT

[2] = biological target: T2, HCV NS3/4A protease complex, BMS strain (UniProt P27958, species not given/STRAIN_BMS); experiment: as above; assay type: biochemical, Hepatitis C virus (genotype 1a); conditions: Table 2, NS3/4A BMS strain, numeric values
T2 construct: said of H77 and J4L6S; fused on or other part: three-lysine solubilising tail at the end of NS4A (printed for the H77 and J4L6S constructs; probably the same for BMS)
Description: as §1, §2, §3, §4
T2 sequence (P27958 1027-1657, stated change not applied, one chain of several): as above

C=C[C@@H]1C[C@]1(NC(=O)[C@@H]1C[C@@](SCCCC)(c2ccc(-c3ccccc3)cc2)CN1C(=O)[C@@H](NC(=O)OC(C)(C)C)C(C)(C)C)C(=O)NS(=O)(=O)C1CC1 [Example 1, tert-butyl (S)-1-((2S,4R)-4-(biphenyl-4-yl)-4-(butylthio)-2-((1R,2S)-1-(cyclopropylsulfonylcarbamoyl)-2-vinylcyclopropylcarbamoyl)pyrrolidin-1-yl)-3,3-dimethyl-1-oxobutan-2-ylcarbamate]
IC50 [1]: 4.6 nM
IC50 [2]: 3 nM
